In one assay the target is T1, dopamine D-2 receptors (Rattus norvegicus, UniProt P61169).
T1 construct: striatal tissue is dissected and weighed; from tissue; host or cells: corpus striatum membranes of male Wistar rats
As to the kind of experiment: inhibition of 3H-spiperone binding to dopamine D-2 receptors in rat corpus striatum in vitro. As for the experimental part: INHIBITION OF ^3 H-SPIPERONE BINDING TO DOPAMINE D-2 RECEPTORS IN RAT CORPUS STRIATUM IN VITRO
By this method the inhibition by drugs of the binding of ^3 H-spiperone (0.5 nM) to dopamine D-2 receptors in membranes from rat corpus striatum is determined in vitro. Method and results in Hyttel and Larsen, J. Neurochem, 44, 1615-1622, 1985).
Male Wistar (Mol:Wistar) rats (125-250 g) are sacrificed and striatal tissue is dissected and weighed. The tissue is homogenized (Ultra Turrax, 10 sec.) in 10 ml of ice-cold 50 mM K-phosphate buffer pH 7.4 (at 25° C.). The homogenate is centrifuged twice at 20,000 g for 10 min. at 4° C. with rehomogenization of the pellet in 10 ml ice-cold buffer. The final pellet is homogenized in 1300 vol (w/v) ice-cold buffer.
Incubation tubes kept on ice in triplicate receive 100 μl of drug solution in water (or water for total binding) and 4000 μl of tissue suspension (final tissue content corresponds to 3.08 mg original tissue). The binding experimental is initiated by addition of 100 μl of ^3 H-spiperone (final concentration 0.5 nM) and by placing the tubes in a 37° C. water bath. After incubation for 10 min. the samples are filtered under vacuum (0-50 mBar) through Whatman GF/F filters (25 mm). The tubes are rinsed with 5 ml ice-cold buffer which are then poured on the filters. Thereafter, the filters are washed with 2×5 ml of buffer. The filters are placed in counting vials and 4 ml of appropriate scintillation fluid (e.g. Picofluor ™15) are added. After shaking for 1 h and storage 2 hrs in the dark the content of radioactivity is determined by liquid scintillation counting. Specific binding is obtained by subtracting the nonspecific binding in the presence of 10 μM of 6,7-ADTN.
(§1) For determination of the inhibition of binding five concentrations of drugs covering 3 decades are used.
England, specific activity 15-25 Ci/mmol.

Assay [1] deals with T2, serotonin S2 (5-HT2) receptors (Rattus norvegicus, UniProt P14842).
T2 construct: cortical tissue is dissected and weighed; from tissue; host or cells: cerebral cortex membranes of male Wistar (Mol:Wist) rats
Briefly: inhibition of 3H-ketanserin binding to serotonin S2 (5-HT2) receptors in rat cortex in vitro. To be noted: 3H-ketanserin 0.5 nM, rat cortex membranes, read-out: Binding IC50, 3H Ket. Here is the method:
Method in Hyttel, Pharmacology & Toxicology, 61, 126-129. 1987.
Male Wistar (Mol:Wist) rats (125-250 g) are sacrifices and cortical tissue is dissected and weighed. The tissue is homogenized (Ultra Turrax, 10 sec.) in 10 ml of ice-cold 50 mM tris buffer pH 7.7 (at 25° C.). The centrifuge glassware used in this step has been rinsed by sonication for 10 min. in ethanol. The homogenate is centrifuged twice at 20,000 g for 10 min. at 4° C. with rehomogenization of the pellet in 10 ml ice-cold buffer. The final pellet is homogenized in 500 vol (w/v) ice-cold buffer.
Incubation tubes kept on ice in triplicate receive 100 μl of drug solution in water (or water for total binding) and 2000 μl of tissue suspension (final tissue content corresponds to 4 mg original tissue). […] After incubation for 30 min. the samples are filtered under vacuum (0-50 mBar) through Whatman GF/F filters (25 mm). The tubes are rinsed with 5 ml ice-cold buffer which are then poured on the filters. Thereafter, the filters are washed with 2×5 ml of buffer. The filters are placed in counting vials and 4 ml of appropriate scintillation fluid (e.g., Picofluor™15) are added. After shaking for 1 h and storage 2 hrs in the dark the content of radioactivity is determined by liquid scintillation counting. Specific binding is obtained by subtracting the nonspecific binding in the presence of 1 μM mianserin. For determination of the inhibition of binding five concentrations of drugs covering 3 decades are used.
The IC50 value is determined as the concentration at which the binding is 50% of the total binding in control samples minus the nonspecific binding in the presence of 1 μM mianserin.

Another assay has as its target α1 adrenoceptors. As to the kind of experiment: inhibition of 3H-prazosin binding to α1 adrenoceptors in rat brain in vitro. To be noted: 3H-prazosin 0.25 nM, rat brain membranes, read-out: Binding IC50, 3H Praz. Here is the method: INHIBITION OF ^3 H-PRAZOSIN BINDING TO α1 ADRENOCEPTORS IN RAT BRAIN IN VITRO
Method and results in Hyttel and Larsen, J. Neurochem, 44, 1615-1622, 1985; Skarsfeldt and Hyttel, Eur. J. Pharmacol. 125, 323-340, 1986.
Male Wistar (Mol:Wist) rats (125-200 g) are sacrificed and brain tissue is dissected and weighed. The tissue is homogenized (Ultra Turrax, 10 sec.) in 10 ml of ice-cold […] Tris buffer pH 7.7 (at 25° C.). The homogenate is centrifuged twice at 20,000 g for 10 min. at 4° C. with rehomogenization of the pellet in 10 ml ice-cold buffer. The final pellet is homogenized in 400 vol (w/v) ice-cold buffer.
Incubation tubes kept on ice in triplicate receive 100 μl of drug solution in water (or water for total binding) and 4000 μl of tissue suspension (final tissue content corresponds to 10 mg original tissue). The binding experiment is initiated by addition of 100 μl of ^3 H-Prazosin (final concentration 0.25 nM) and by placing the tubes in a 25° C. water bath. After incubation for 20 min. the samples are filtered under vacuum (0-50 mBar) through Whatman GF/F filters (25 mm). The tubes are rinsed with 5 ml ice-cold buffer which then are poured on the filters. Thereafter, the filters are washed with 5 ml of buffer. The filters are placed in counting vials and 4 ml of appropriate scintillation fluid (e.g. Picofluor™15) are added. After shaking for 1 h and storage 2 hrs in the dark the content of radioactivity is determined by liquid scintillation counting. Specific binding is obtained by subtracting the nonspecific binding in the presence of 1 μM of Prazosin.
as §1
The measured cpm are plotted against drug concentration on semilogarithmic paper and the best fitting S-shaped curve is drawn. The IC50 value is determined as the concentration at which the binding is 50% of the total binding in control samples minus the nonspecific binding in the presence of 1 μM of Prazosin. ^3 H-Prazosin=[furoyl-5-^3 H]-Prazosin from New England Nuclear, specific activity approximately 20 Ci/mmol.

The next assay has as its target T3, 5-HT2 (Rattus norvegicus, UniProt P14842).
T3 construct: Four rats, male Wistar (Mol:Wist) SPF rats weighing 170-240 g; from tissue; host or cells: living male Wistar (Mol:Wist) SPF rats (in vivo, endogenous receptor)
As to the kind of experiment: quipazine inhibition (quipazine-induced head twitches in rats). The class given is in vivo. Here is the method: Quipazine is a 5-HT2 agonist, which induces head twitches in rats. The test is a test for 5-HT2 -antagonistic effect testing the ability to inhibit head twitches. The method and test results for some reference substances are published by Arnt et al. (Drug Development Research, 16, 59-70, 1989).
Test substance is injected s.c. 2 hrs before or p.o. 24 hrs before quipazine administration (6.8 mg/kg, s.c., dimaleate). Four rats, male Wistar (Mol:Wist) SPF rats weighing 170-240 g, are used at each dose level. A control group is included each test day. By repeated testing (2, 24 hrs) the control group is the same, however. After quipazine administration the rats are individually placed in the observation cages and head twitches are counted in an observation period of 30-40 min. after injection of quipazine.
Total number of head twitches in each group is calculated and the result for each dose is expressed as per cent of the response in the control group. ED50 values are calculated by log-probit analysis. The test must be repeated if the average number of head twitches is lower than 9 in the control group.

Setting [2] is: 3H-spiperone 0.5 nM, rat corpus striatum membranes, in vitro, read-out: Binding IC50, 3H Spi.

Like-named read-outs stand apart in the source and are kept apart here.

T1 sequence (P61169 whole entry): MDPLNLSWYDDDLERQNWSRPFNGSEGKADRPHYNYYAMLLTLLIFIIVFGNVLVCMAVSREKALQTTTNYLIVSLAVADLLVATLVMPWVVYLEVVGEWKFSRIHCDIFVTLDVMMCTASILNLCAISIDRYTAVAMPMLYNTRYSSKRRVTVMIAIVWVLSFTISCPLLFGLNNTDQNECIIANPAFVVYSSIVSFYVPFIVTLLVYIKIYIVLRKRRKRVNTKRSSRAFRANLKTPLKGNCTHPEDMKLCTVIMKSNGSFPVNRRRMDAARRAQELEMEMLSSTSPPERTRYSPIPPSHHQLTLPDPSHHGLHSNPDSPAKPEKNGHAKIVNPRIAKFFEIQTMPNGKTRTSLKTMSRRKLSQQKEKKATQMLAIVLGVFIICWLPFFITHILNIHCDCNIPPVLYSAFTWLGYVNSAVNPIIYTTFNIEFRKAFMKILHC
T2 sequence (P14842 whole entry): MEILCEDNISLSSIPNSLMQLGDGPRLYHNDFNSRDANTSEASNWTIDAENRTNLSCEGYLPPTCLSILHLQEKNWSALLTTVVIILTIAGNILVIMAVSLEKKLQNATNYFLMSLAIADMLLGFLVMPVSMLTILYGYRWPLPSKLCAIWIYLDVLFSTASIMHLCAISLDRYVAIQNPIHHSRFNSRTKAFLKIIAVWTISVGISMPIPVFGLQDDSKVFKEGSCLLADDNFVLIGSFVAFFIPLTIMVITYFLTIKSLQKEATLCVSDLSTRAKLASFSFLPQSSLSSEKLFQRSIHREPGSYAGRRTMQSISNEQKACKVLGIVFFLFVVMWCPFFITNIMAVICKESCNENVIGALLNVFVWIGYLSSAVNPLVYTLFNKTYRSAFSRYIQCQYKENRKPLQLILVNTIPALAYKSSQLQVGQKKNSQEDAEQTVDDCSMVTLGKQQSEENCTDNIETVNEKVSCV
T3 sequence (P14842 whole entry): as above

Regarding `CC(C)N1CCN(CCN2CC=C(c3cn(-c4ccc(F)cc4)c4cc(Cl)ccc34)CC2)C1=O` [Compound 2a, 6-chloro-1-(4-fluorophenyl)-3-[1-[2-[3-(2-propyl)-2-imidazolidinon-1-yl]ethyl]-1,2,3,6-tetrahydropyridin-4-yl]-1H-indole], the IC50 – broadly, the concentration that inhibits the measured activity by half – on dopamine D-2 receptors stood at 0.066 µM; in assay [1] it was 0.0035 µM; on α1 adrenoceptors it was 0.055 µM.
Turning to `CC(C)N1CCN(CCN2CCC(c3cn(-c4ccc(F)cc4)c4cc(C(F)(F)F)ccc34)CC2)C1=O` [Compound 4c, 1-(4-fluorophenyl)-3-[1-[2-[3-(2-propyl)-2-imidazolidinon-1-yl]ethyl]-4-piperidyl]-6-trifluoromethyl-1H-indole], the IC50 stood at 0.28 µM on dopamine D-2 receptors (setting [2]), 0.0029 µM in assay [1] and 0.091 µM on α1 adrenoceptors.
Taken in the same sequence, the figures for `O=C1CCCN1CCN1CCC(c2cn(-c3ccc(F)cc3)c3cc(C(F)(F)F)ccc23)CC1` [Compound 4e, 1-(4-fluorophenyl)-3-[1-[2-(2-pyrrolidinon-1-yl)ethyl]-4-piperidyl]-6-trifluoromethyl-1H-indole] were 0.3 µM, 0.0028 µM and 0.049 µM.
On to `COc1ccc2c(C3CCN(CCN4CCN(C(C)C)C4=O)CC3)cn(-c3ccc(F)cc3)c2c1` [Compound 4i, 1-(4-fluorophenyl)-6-methyoxy-3-[1-[2-[3-(2-propyl)-2-imidazolidinon-1-yl]ethyl]-4-piperidyl]-1H-indole], for which the IC50 is 0.71 µM on dopamine D-2 receptors (setting [2]), 0.0071 µM in assay [1] and 0.14 µM at α1 adrenoceptors.
For `CC(C)c1ccc2c(C3CCN(CCN4CCN(C(C)C)C4=O)CC3)cn(-c3ccc(F)cc3)c2c1` [Compound 5c, 1-(4-fluorophenyl)-6-(2-propyl)-3-[1-[2-[3-(2-propyl)-2-imidazolidinon-1-yl]ethyl]-4-piperidyl]-1H-indole], in that order: 2 µM, 0.016 µM and 0.73 µM.
Taken in the same sequence, the figures for `Cc1ccc2c(C3CCN(CCNC(=O)NC(C)C)CC3)cn(-c3ccc(F)cc3)c2c1` [Compound 9a, 1-(4-fluorophenyl)-3-[1-[2-[3-(2-propyl)-1-ureido]-1-ethyl]-4-piperidyl]-6-methyl-1H-indole] were 0.3 µM, 0.0018 µM and 0.076 µM.
As to `Cc1ccc2c(C3CCN(CCNC(=O)N(C)C)CC3)cn(-c3ccc(F)cc3)c2c1` [Compound 9b, 3-[1-[2-(3,3-dimethyl-1-ureido)-1-ethyl]-4-piperidyl]-1-(4-fluorophenyl)-6-methyl-1H-indole], in assay [1], the IC50 amounted to 0.0026 µM. Also, the ED50 – broadly, the dose that gives a 50% effect, or the effect in half of the subjects – on 5-HT2 (po, 24 h, read-out: Quipazine inhibition ED50, 24h (po)) is less than 0.14 µmol/kg; at 5-HT2 (sc, 2 h, read-out: Quipazine inhibition ED50, 2h (sc)) it was 0.12 µmol/kg.
For the compound `CC(C)N1CCN(CCN2CCC(c3cn(-c4ccc(F)cc4)c4cc(Cl)ccc34)CC2)C1=S` [Compound 13a, 6-chloro-1-(4-fluorophenyl)-3-[1-[2-[3-(2-propyl)-2-imidazolidinthion-1-yl]ethyl]-4-piperidyl]-1H-indole], the values for the IC50 (on dopamine D-2 receptors (setting [2]); in assay [1]; at α1 adrenoceptors) were 0.27 µM, 0.0044 µM and 0.11 µM, respectively.
In the case of `Cc1ccc2c(C3CCN(CCN4CCN(C(C)C)C4=O)CC3)cn(-c3ccsc3)c2c1` [Compound 15c, 6-methyl-3-[1-[2-[3-(2-propyl)-2-imidazolidinon-1-yl]ethyl]-4-piperidyl]-1-(3-thie-nyl)-1H-indole], the IC50 on dopamine D-2 receptors (setting [2]) was determined as 1 µM; in assay [1] it was 0.0026 µM; on α1 adrenoceptors, 0.33 µM.
Taken in the same sequence, the figures for `Cc1ccc2c(C3CCN(CCN4CCN(C(C)C)C4=O)CC3)cn(-c3ccccc3F)c2c1` [Compound 15f, 1-(2-fluorophenyl)-3-[1-[2-[3-(2-propyl)-2-imidazolidinon-1-yl]ethyl]-4-piperidyl]-6-methyl-1H-indole] were 0.73 µM, 0.0025 µM and 0.37 µM.
For `Cc1ccc2c(C3CCN(CCN4CCN(C(C)C)C4=O)CC3)cn(-c3cccc(F)c3)c2c1` [Compound 15g, 1-(3-fluorophenyl)-3-[1-[2-[3-(2-propyl)-2-imidazolidinon-1-yl]ethyl]-4-piperidyl]-6-methyl-1H-indole], in that order: 3.2 µM, 0.011 µM and 0.67 µM.
In the case of `Cc1ccc2c(C3CCN(CCN4CCN(C(C)C)C4=O)CC3)cn(-c3ccc(Cl)cc3)c2c1` [Compound 15h, 1-(4-chlorophenyl)-3-[1-[2-[3-(2-propyl)-2-imidazolidinon-1-yl]ethyl]-4-piperidyl]-6-methyl-1H-indole], the IC50 on dopamine D-2 receptors (setting [2]) is 0.62 µM; in assay [1], 0.006 µM; at α1 adrenoceptors, 0.45 µM.
Taken in the same sequence, the figures for `Cc1c(C2CCN(CCN3CCNC3=O)CC2)c2ccccc2n1-c1ccc(F)cc1` [Compound 24c, 1-(4-fluorophenyl)-3-[1-[2-(2-imidazolidinon-1-yl)ethyl]-4-piperidyl]-2-methyl-1H-indole] were 0.38 µM, 0.00069 µM and 0.061 µM.
